Data on 7 molecules can be found in patent US5049550A, “Diadenosine 5', 5'"-p^1, p^4,-tetraphosphate analogs as antithrombotic agents” (Worcester Foundation for Experimental Biology, priority 1988, dated 1991).

Data set [1] relates to ADP-Induced Platelet Aggregation. In words: ADP-induced platelet aggregation in human platelet-rich plasma. The conditions noted are these: for pIC50: Homo sapiens, Platelet. It counts as cell-based. On the procedure:
Human platelet-rich plasma was pre-incubated at 37° C. with the appropriate analogue for 1 minute. Aggregation was then induced by 5 μM ADP. ID50 values (i.e. concentration of analogue at which platelets are inhibited by 50 percent) were obtained from log-dose response plots.
FIG. 5 is a graphic representation of the data.
This Example illustrates that sulfur-containing analogues of AP4 A are as effective as E10 in inhibiting aggregation of platelets. Platelet aggregation was induced by ADP and its inhibition measured as in the previous Example.

Data set [2] deals with Intracarotid Artery Thrombosis. Description: Intracarotid cannula arterial thrombosis model in rabbits. It counts as in vivo, rabbit. The protocol: Gurewich, V. and Lipinski, B. Thrombosis Research, 9:101 (1976); Louie, S. and Gurewich, V. Thrombosis Research, 30:323-335 (1983).
Male, New Zealand white rabbits, weighing 2-2.5 kg., were anesthetized with ketamine hydrochloride (100 mg/kg intramuscularly). AP4 A (Boehringer (100 Mannheim Biochemicals, Indianapolis, Ind.), or saline control was infused via a marginal ear vein. A segment of the left common carotid artery was isolated by vascular clamps. A 1 cm. length of polyethylene tubing (PE-90, Clay Adams, Parsippany, N.Y.) was inserted, secured by silk ligatures, and the blood flow re-established by removing the clamps. Blood was sampled from the right carotid artery for assays of AP4 A and ATP, and for platelet aggregation studies.
After preliminary trials, a standard AP4 A infusion protocol was established as follows: A dose of AP4 A at 50 mg/kg was reconstituted in 10 ml of normal saline and infused by pump at a uniform rate over two hours. Control rabbits received 10 ml of saline alone. The intracarotid cannula was inserted, and the re-establishment of blood flow timed at 15 minutes into the infusion. Upon the completion of infusion at 2 hours, the intracarotid tubing was removed, and its contents flushed out into a petri dish. The presence of a clot or of liquid blood contents was noted.
Twenty-five rabbits each were assigned to the experimental group that received AP4 A (50 mg/kg), and the control group that received normal saline alone. The incidence of clot formation in the intracarotid cannula in the two groups was compared by the Chi-Square test.
Initially, twelve rabbits received a constant infusion of E10 over a 2 hour period at a dosage of 100 mg in 10 ml. These intravenous infusions were performed as described above for AP4 A.
In addition, 30 mg of E10 in 3 ml saline was administered as a single injection over a one minute time span at the beginning of the cannulation period.

Data set [3] deals with ADP-induced platelet aggregation. Description: Kinetics of ADP-induced platelet aggregation (double-reciprocal plot). It counts as cell-based. The conditions noted are these: FIG. 6. The protocol: Changes in light transmission reflecting the velocity of ADP-induced platelet aggregability was determined using a platelet aggregometer. Born, G.V.P., Nature 184:927-929 (1962). […] The Y points on the X-intercept are altered by factors [formula] where I is the concentration of inhibitor, and Ki is a characteristic constant. Points on the X-intercept are given by the expression [formula] intercept when [I]=0. When [I] is known, the equation can be solved for Ki.

In data set [4] the test system is Intracarotid Artery Thrombosis. Particulars: rabbit model, literature; cited from earlier work.
Data set [5] concerns rabbit platelet aggregation by collagen. Description: Collagen-induced aggregation of rabbit platelets. It counts as cell-based. The conditions noted are these: collagen 200 ug/ml. The protocol: (§1) Rabbit carotid arterial blood was collected in 3.8% sodium citrate (9 volumes blood to 1 volume citrate). Platelet rich plasma (PRP) and platelet poor plasma (PPP) were prepared by centrifugation at 150 g and 1,000 g for 10 minutes respectively. Aggregation studies were performed in a Chrono-Log (Havertown, Pa.) aggregometer with ADP or collagen as aggregating agents. ADP (Sigma Chemical Co.) was used in a final concentration of 2×10^-5 M. Calf skin collagen (Sigma Chemical Co.) was used in a final concentration of 200 ug/ml.
(§2) The effect of AP4 A on rabbit platelet aggregation by ADP and collagen was tested. […] The anti-aggregatory effect of AP4 A was detected at a concentration of 2×10^-4 M (tenfold that of ADP) and increased in a dose-response pattern with increasing concentrations (FIG. 1).

The conditions of data set [6]: plasma; cited from earlier work.
The test system of the next data set is platelets. The conditions noted are these: cited from earlier work.
In data set [7] the test system is rabbit platelet aggregation by ADP. Description: ADP-induced aggregation of rabbit platelets. It counts as cell-based. The conditions noted are these: ADP 2×10^-5 M. On the procedure:
as §1, §2

Where [8] appears, read: E10 30 mg, single injection over one minute, 6 rabbits.
Setting [9] is: E10 100 mg, 2 h infusion, 12 rabbits.
Setting [10] is: E10 total (100 mg + 30 mg series), 18 rabbits.

pIC50, pKi: −log10 of the molar value. “Also recorded” adds a separate entry of the source. Like-named read-outs stand apart in the source and are kept apart here. A value given as a limit tells only on which side of the number the result lay.

Take `Nc1ncnc2c1ncn2[C@@H]1O[C@H](COP(=O)(O)OP(=O)(O)C(Cl)P(=O)(O)OP(=O)(O)OC[C@H]2O[C@@H](n3cnc4c(N)ncnc43)[C@H](O)[C@@H]2O)[C@@H](O)[C@H]1O` (stereo partly drawn) [Analogue E10, diadenosine chloromethylene tetraphosphate]: the “inhibition of platelet aggregation (in words)” value in data set [1] (5 μM ADP, FIG. 5 at 12.5 μM) is “particularly effective; also recorded: the most effective inhibitor of platelet aggregation; also recorded: potent inhibitor of platelet aggregation; also recorded: potent inhibitors of platelet aggregation and blood clot formation”. Besides, the pIC50 in data set [1] (Table 3, 5 μM ADP, 1 minute pre-incubation at 37° C., read-out: ID50 (concentration of analogue at which platelets are inhibited by 50 percent)) was 5.52; in data set [1] (Table 5, sulfur-containing analogues, induced by ADP, read-out: ID50 (the source's name)) it was above 5.30. Further, the “effect on clot formation compared to saline controls” value in data set [2] (E10 30 mg and 100 mg series combined) is recorded as “significantly reduces clot formation”. Also, the “% Clots” value in data set [2] (setting [8]), in data set [2] (setting [9]) and in data set [2] (setting [10]) was 33% in each case. The “Clot Absent (rabbits)” value was found to be 4 in data set [2] (setting [8]), 8 in data set [2] (setting [9]) and 12 in data set [2] (setting [10]). The “Clot Present (rabbits)” value in data set [2] (setting [8]) turned out to be 2; in data set [2] (setting [9]), 4; in data set [2] (setting [10]) it was 6. In addition, the “fraction of rabbits with no incidence of clotting” value in data set [2] (E10 100 mg) was “two-thirds”. In data set [3] (competitive inhibition of ADP-induced aggregation), this molecule showed a pKi of 5.17. In addition, the “type / relative strength of inhibition” value in data set [3] (double reciprocal plot) is reported as “superior to AP4 A as a competitive inhibitor”.

As to `CCCCCCCCNC(C)C(O)c1ccc(SC(C)C)cc1` (stereo not drawn) [suloctidil], the “effect on clot formation in intracarotid cannula” value (“effect … in intracarotid cannula” for short) in data set [4] is listed as “can be modified”.

For the molecule “collagen: Calf skin collagen (Sigma Chemical Co.) [reference compound]”, the “platelet aggregation by agonist” value in data set [5] is “prompt and complete platelet aggregation”.

For the molecule `Nc1ncnc2c1ncn2[C@@H]1O[C@H](COP(=O)(O)OP(=O)(O)OP(=O)(O)OC[C@H]2O[C@@H](n3cnc4c(N)ncnc43)[C@H](O)[C@@H]2O)[C@@H](O)[C@H]1O` [AP3 A, diadenosine 5',5'"-p^1, p^3 -triphosphate], in data set [6], the degradation products result was “hydrolysed in plasma to AMP (adenosine monophosphate) and ADP (adenosine diphosphate)”. Also, the “effect on platelet aggregation” value with platelets is recorded as “gradual aggregation of platelets; also recorded: immediately reversible upon the addition of AP4 A”.

On to `Nc1ncnc2c1ncn2[C@@H]1O[C@H](COP(=O)(O)OP(=O)(O)O)[C@@H](O)[C@H]1O` [ADP, adenosine diphosphate, reference compound], for which the “platelet aggregation by agonist” value in data set [7] is “prompt and complete platelet aggregation”. Besides, in data set [3], the Km amounted to 3 µM.

For `CC(=O)Oc1ccccc1C(=O)O` [aspirin], the “effect … in intracarotid cannula” value in data set [4] is “can be modified”.

In the case of `OCCN(CCO)c1nc(N2CCCCC2)c2nc(N(CCO)CCO)nc(N3CCCCC3)c2n1` [dipyridamole], in data set [4], the “effect … in intracarotid cannula” value is “can be modified”.
